Measured values: US20150313825A1, “METHODS AND COMPOSITIONS FOR LOCALLY INCREASING BODY FAT” (TOPOKINE THERAPEUTICS, INC., priority 2012, published 2015)
Where two headings read alike, the source gives them in different places. Marks after values point to notes of the source that are not given here.

Assays:
subcutaneous fat [1] = test: Randomized controlled trial in mice, daily percutaneous application to right flank for 24 days (Example 1); assay type: in vivo, C57BL/6J mice; conditions: for Mean weight gain relative to vehicle / Mean weight gain / Local increase in subcutaneous fat (treated right flank vs untreated left flank): 5 mM in Lipoderm; for Mean weight gain relative to vehicle / Mean weight gain: 0.1 cc to flank daily, Day 0 until Day 24; for Mean weight gain: high-fat diet; for Local increase in subcutaneous fat (treated right flank vs untreated left flank): following 24 days of therapy
Method: The arms were as follows: vehicle (Lipoderm®), a thiazolidinedione (pioglitazone), harmine, an orexigenic compound (megestrol acetate), and efavirenz. Each compound was combined in the percutaneous Lipoderm® formulation at an equimolar concentration (5 mM). The Lipoderm® vehicle is adapted to deliver the respective compound percutaneously, i.e., across the skin and into subcutaneous fat. The formulations were applied daily to the right flank of each animal, whereas the left flank was used as an untreated control.
A randomized controlled trial was conducted on C57BL/6J. Male mice approximately six weeks old were prospectively randomized into groups and assigned to the following treatment conditions (n=5 animals per group):
Animals were shaved and depilated over the flanks at the start of the study.
Animals were kept in identical conditions and fed ab libitum with a standardized high-fat diet (70% kcal fat). Animals were weighed three times weekly. Following 24 consecutive days of treatment, mice were sacrificed and samples of skin and adjacent fat from the treated flanks are taken for histologic examination.

subcutaneous fat [2] = test: Clinical application for augmentation of the buttocks (Example 9); assay type: in vivo, human; conditions: 10 mg/ml in Lipoderm daily, after 6 months
Method: The following description exemplifies a clinical application of percutaneous administration of an orexigenic pregnane derivative for augmentation of the buttocks. A female or male patient wishes to undergo a buttocks augmentation procedure but is concerned about the risks of surgery. The physician prescribes a daily application of megestrol acetate (for example, 10 mg/ml in Lipoderm®) to the buttocks.

subcutaneous fat [3] = test: Mouse study of percutaneous rosiglitazone, methods of Example 1 (Example 2); conditions: rosiglitazone 0.1% or 0.3% by weight
[4] = oral, 4 mg/d, humans; cited from earlier work
subcutaneous fat [5] = conditions: for Rosiglitazone Increase over Placebo (fat thickness), MEAN: 42 days, p<0.0001
Method: A prospective controlled trial was performed in 4 Gottingen minipigs (2 males, 2 females). Hair on the back was clipped. […] An equivalent Vehicle Treatment Area was marked on the left side of the animal, such that the two treatment areas were anatomically equivalent. […] After 42 days of treatment, plasma pharmacokinetics (PK) was assessed on all animals by Liquid Chromatography/Tandem Mass Spectrometry. Necropsy was done and samples of skin, subcutaneous fat, and muscle were collected en bloc from each treatment area in a controlled fashion. […] Table 5 presents the thicknesses of subcutaneous fat on each of six treated and control (vehicle) locations, by animal. […] Table 6 compares plasma PK following percutaneous administration (present study) with plasma PK following oral administration in humans.

Structure (SMILES)	Mean weight gain relative to vehicle (subcutaneous fat [1]) [%]	Mean weight gain (subcutaneous fat [1]) [g]	Local increase in subcutaneous fat (treated right flank vs untreated left flank) (subcutaneous fat [1])	also measured
CCc1ccc(CCOc2ccc(CC3SC(=O)NC3=O)cc2)nc1 (stereo not drawn) [Pioglitazone]	112	7.4	–	–
CC(=O)O[C@]1(C(C)=O)CC[C@H]2[C@@H]3C=C(C)C4=CC(=O)CC[C@]4(C)[C@H]3CC[C@@]21C [Megestrol acetate]	120	8.0	local increases in subcutaneous fat	Relative skin fold thickness of the left and right flanks (subcutaneous fat [1]; Day 24, treated vs untreated flank): asymmetric, with thicker skin folds on the treated flanks; Skin fold thickness, right (treated) flank (subcutaneous fat [1]; representative mouse, 24 days of treatment, untreated left flank about 2 mm): about 4 mm; Clinical size of buttocks (subcutaneous fat [2]): the buttocks appear clinically larger
O=C1Nc2ccc(Cl)cc2[C@@](C#CC2CC2)(C(F)(F)F)O1 [Efavirenz]	92	6.1	did not exhibit any increase in fat or asymmetry	–
COc1ccc2c(c1)[nH]c1c(C)nccc12 [Harmine]	102	6.8	did not exhibit any increase in fat or asymmetry	–
CN(CCOc1ccc(CC2SC(=O)NC2=O)cc1)c1ccccn1 (stereo not drawn) [Rosiglitazone]	–	–	–	Adverse effects (subcutaneous fat [3]): No adverse effects were noted; Peak plasma level (Cmax) [4]: 0.355 µg/mL; Plasma exposure (AUC0-24) [4]: 2.542 µg·h/mL; Fat Thickness (mm), Rosiglitazone Treatment Area, MEAN (subcutaneous fat [5]; mean of 24 locations, vehicle mean 4.39, p < .0001 (paired t-test)): 6.29* mm; Rosiglitazone Increase over Placebo (fat thickness), MEAN (subcutaneous fat [5]): 48%; Rosiglitazone Increase over Placebo (fat thickness), MEAN (subcutaneous fat [5]; listed as rosiglitazone): 48%; Tolerability, skin irritation and clinical observations (subcutaneous fat [5]; minipig, in vivo): well tolerated, with no evidence of skin irritation or other clinical observations
